{"source": "patent US20140357512A1", "about": "“HISTONE DEACETYLASE (HDAC) BIOMARKERS IN MULTIPLE MYELOMA” (priority 2013, published 2014)", "test_system": "human myeloma cell line MM.1S", "assay": "SILAC acetylated-lysine peptide profiling, HDAC inhibitor vs DMSO (light/heavy ratio)", "format": "cell-based", "text": "An embodiment of the invention comprises utilizing the SILAC method in order to quantitate changes in protein expression between two or more populations of cells. The SILAC method is a technique based on mass spectrometry that detects differences in protein abundance among samples using non-radioactive isotopic labeling. The SILAC method is known in the art, and described in detail in Ong et al., “Stable Isotope Labeling by Amino Acids in Cell Culture, SILAC, as a Simple and Accurate Approach to Expression Proteomics”, Molecular & Cellular Proteomics, vol. 1, pp. 376-386 (2002), which is incorporated herein by reference in its entirety.\nBriefly, the SILAC method involves growing two populations of cells in cell culture. The first population of cells is grown in growth media containing normal amino acids (“normal media”). The second population of cells is grown in media lacking a standard essential amino acid (such as lysine), but is then supplemented with a non-radioactive, isotopically labeled form of that essential amino acid (such as lysine labeled with ^13C atoms, rather than normal ^12C atoms), which is called “heavy media”. When the two populations of cells are each growing in the medium, they incorporate the amino acids into all of their proteins. The growth of cells maintained in the heavy media is no different from that in normal media. All peptides containing the heavy amino acids are heavier than their normal counterparts. The cells from each of the two populations of cells are lysed. The lysates from each of the two cell populations are then combined. The combined cell lysates are then analyzed by mass spectrometry. Pairs of chemically identical peptides of different stable isotope composition can be differentiated in a mass spectrometer due to their difference in mass. The ratio of peak intensities in the mass spectrum for such peptide pairs reflects the abundance ratio for the two proteins.\nThis example describes SILAC studies that were performed to compare the effects of three different HDAC inhibitors (Compound A, Compound B, and tubastatin A) to a control on a human multiple myeloma cell line. The HDAC inhibitors were also compared amongst themselves to determine differences in their effects.\nA human myeloma cell line MM.1S was grown using either ^12C (light) or ^13C (heavy) lysine containing culture medium. The “heavy” cells were treated with DMSO as the control, and the “light” cells were treated with a single HDAC inhibitor at 37° C. for 6 hours. The heavy and light cells were lysed, and the lysates were mixed in 1:1 ratio and digested with the protease trypsin. The acetylated lysine containing peptides (due to the action of the HDAC inhibitor) in the digested peptide pool were captured by a non-specific anti-acetylated lysine antibody cocktail (the antibodies identify both light and heavy acetylated peptides), and subjected to mass spectrometry analysis in order to identify thousands of individual peptides.\nThousands of peptides were identified in pairs (^12C and ^13C) due to their known mass differences. The amino acid sequence and quantitative ratio (Light/Heavy) of a given peptide in two differentially treated cell lysates were then determined and annotated with their possible protein (gene) sources.\nAs stated above, three HDAC inhibitors (Compound A, Compound B, and Tubastatin A) were used. Thus, the SILAC method was performed three times, with a different HDAC inhibitor compared to a control each time. Accordingly, there are three pairs of quantitative data in the table below, i.e., Compound A:DMSO, Compound B:DMSO, and Tubastatin A:DMSO. A cut-off of 1.30 fold of change (increase or decrease) was then used to determine “changed” or “+” in the table, and any peptides with a fold of change less than 1.3 fold were determined to be “unchanged” or “0” in the table. Those peptides that were not identified were marked as “NA” in the table. […]", "data": [{"smiles": "CN1CCc2c(c3ccccc3n2Cc2ccc(C(=O)NO)cc2)C1", "note": "[Tub A]", "values": [{"measurement": "light to heavy ratio (L/H ratio) of acetylated peptide YFDEK(ac)IAK (SEQ ID NO: 563)", "setting": "D-beta-hydroxybutyrate dehydrogenase mitochondrial [280], gene BDH1, inhibitor:DMSO", "result": 0.00, "unit": "log 2"}, {"measurement": "light to heavy ratio (L/H ratio) of acetylated peptide, log 2 scale", "setting": "DAAGSGDK(ac)PGADTGR (SEQ ID NO: 185), 39S ribosomal protein L53 mitochondrial [105], MRPL53", "result": 0.38}, {"measurement": "light to heavy ratio (L/H ratio) of acetylated peptide, log 2 scale", "setting": "DAISGIGTDEK(ac)CLIEILASR (SEQ ID NO: 128), Annexin A6 [113], ANXA6", "result": 0.67}, {"measurement": "L/H ratio of acetylated peptide FK(ac)DPNCVGTVLASR (SEQ ID NO: 30)", "setting": "DAZAP1 [59], log 2 scale, drug vs DMSO", "result": "−0.51"}, {"measurement": "light to heavy ratio (L/H ratio) of acetylated peptide, log 2 scale", "setting": "DCDHADEQK(ac)CYSCGEFGHIQK (SEQ ID NO: 145), Isoform 1 of Cellular nucleic acid-binding protein [118], CNBP", "result": "−0.38"}, {"measurement": "L/H ratio of acetylated peptide APTIVGK(ac)SSLNPILFR (SEQ ID NO: 31)", "setting": "DDOST [189], log 2 scale, drug vs DMSO", "result": "−0.51"}, {"measurement": "L/H ratio of acetylated peptide FGNPGEK(ac)LVK (SEQ ID NO: 34)", "setting": "DDX5 [40], log 2 scale, drug vs DMSO", "result": 0.45}, {"measurement": "L/H ratio of acetylated peptide DWVLNEFK(ac)HGK (SEQ ID NO: 33)", "setting": "DDX5 [388], log 2 scale, drug vs DMSO", "result": "−0.41"}, {"measurement": "L/H ratio of acetylated peptide FEK(ac)NFYVEHPEVAR (SEQ ID NO: 32)", "setting": "DDX17 [132], log 2 scale, drug vs DMSO", "result": "−0.42"}, {"measurement": "light to heavy ratio (L/H ratio) of acetylated peptide, log 2 scale", "setting": "DELGDYLK(ac)PK (SEQ ID NO: 184), 39S ribosomal protein L46 mitochondrial [265], MRPL46", "result": "−0.96"}, {"measurement": "L/H ratio of acetylated peptide", "setting": "DHPLPEVAHVK(ac)HLSASQK (SEQ ID NO: 381), Cytochrome c oxidase subunit 4 isoform 1 mitochondrial [53], COX4I1", "result": 0.00, "unit": "log 2"}, {"measurement": "light to heavy ratio (L/H ratio) of acetylated peptide, log 2 scale", "setting": "DK(ac)TQYIFNNMVLK (SEQ ID NO: 182), Alpha-mannosidase 2 [191], MAN2A1", "result": "−0.45"}, {"measurement": "L/H ratio of acetylated peptide ELNK(ac)ILEGR (SEQ ID NO: 2)", "setting": "DLAT [466], log 2 scale, drug vs DMSO", "result": 0.45}, {"measurement": "light to heavy ratio (L/H ratio) of acetylated peptide, log 2 scale", "setting": "DLEK(ac)WQNNLLPSR (SEQ ID NO: 211), 40S ribosomal protein 515a [88], RPS15A", "result": "−0.46"}, {"measurement": "light to heavy ratio (L/H ratio) of acetylated peptide, log 2 scale", "setting": "DLMTDLK(ac)SEISGDLAR (SEQ ID NO: 129), Annexin A6 [418], ANXA6", "result": 0.42}, {"measurement": "L/H ratio of acetylated peptide VVK(ac)HPIFER (SEQ ID NO: 35)", "setting": "DNAJB11 [247], log 2 scale, drug vs DMSO", "result": "−0.91"}, {"measurement": "light to heavy ratio (L/H ratio) of acetylated peptide, log 2 scale", "setting": "DSGNK(ac)PPGLLPR (SEQ ID NO: 160), Isoform 1 of Glutathione S-transferase kappa 1 [54], GSTK1", "result": 0.47}, {"measurement": "light to heavy ratio (L/H ratio) of acetylated peptide, log 2 scale", "setting": "DVK(ac)FGADAR (SEQ ID NO: 173), 60 kDa heat shock protein mitochondrial [31], HSPD1", "result": "−0.66"}, {"measurement": "L/H ratio of acetylated peptide SFDSEFK(ac)LACK (SEQ ID NO: 8)", "setting": "DYNC1H1 [4283], log 2 scale, drug vs DMSO", "result": 0.44}, {"measurement": "light to heavy ratio (L/H ratio) of acetylated peptide LNLDK(ac)MMEQK (SEQ ID NO: 603)", "setting": "Dihydrolipoyl dehydrogenase mitochondrial [122], gene DLD, inhibitor:DMSO", "result": 0.00, "unit": "log 2"}, {"measurement": "light to heavy ratio (L/H ratio) of acetylated peptide DTYIENEK(ac)LISGK (SEQ ID NO: 352)", "setting": "Dolichyl-diphosphooligosaccharide--protein glycosyltransferase subunit 1 precursor [626], RPN1, drug:DMSO", "result": 0.00, "unit": "log 2"}, {"measurement": "light to heavy ratio (L/H ratio) of acetylated peptide YNIEK(ac)DIAAHIK (SEQ ID NO: 553)", "setting": "Dynein light chain 1 cytoplasmic [36], gene DYNLL1, inhibitor:DMSO", "result": 0.00, "unit": "log 2"}, {"measurement": "light to heavy ratio (L/H ratio) of acetylated peptide YNIEK(ac)DIAAYIK (SEQ ID NO: 331)", "setting": "Dynein light chain 2 cytoplasmic [36], DYNLL2, drug:DMSO", "result": 0.00, "unit": "log 2"}, {"measurement": "light to heavy ratio (L/H ratio) of acetylated peptide, log 2 scale", "setting": "EAALEPSMEK(ac)IFK (SEQ ID NO: 157), cDNA FLJ59630 highly similar to Growth hormone-inducible transmembrane protein [76], GHITM", "result": "−0.68"}, {"measurement": "light to heavy ratio (L/H ratio) of acetylated peptide, log 2 scale", "setting": "EDQK(ac)PVMDDQR (SEQ ID NO: 141), Isoform 1 of HLA class I histocompatibility antigen gamma chain [14], CD74", "result": "−0.79"}, {"measurement": "L/H ratio of acetylated peptide TSK(ac)NK(ac)SSLSR (SEQ ID NO: 14)", "setting": "EP300 [1558:1560], log 2 scale, drug vs DMSO", "result": 0.42}, {"measurement": "light to heavy ratio (L/H ratio) of acetylated peptide, log 2 scale", "setting": "EQEHMINWVEK(ac)HVVQSISTQQEK (SEQ ID NO: 132), ATP synthase subunit b mitochondrial [221], ATP5F1", "result": 0.77}, {"measurement": "light to heavy ratio (L/H ratio) of acetylated peptide, log 2 scale", "setting": "EVHK(ac)QVVESAYEVIK (SEQ ID NO: 181), Isoform 1 of L-lactate dehydrogenase A chain [232], LDHA", "result": "−0.67"}, {"measurement": "light to heavy ratio (L/H ratio) of acetylated peptide, log 2 scale", "setting": "EVQTNDLK(ac)EVVNK (SEQ ID NO: 223), 40S ribosomal protein S3a [182], SNORD73A, RPS3A", "result": "−0.60"}, {"measurement": "light to heavy ratio (L/H ratio) of acetylated peptide TFK(ac)GVVDVVMK (SEQ ID NO: 550)", "setting": "Elongation factor G 2 mitochondrial precursor [265], gene GFM2, inhibitor:DMSO", "result": 0.00, "unit": "log 2"}, {"measurement": "light to heavy ratio (L/H ratio) of acetylated peptide KSDYIK(ac)LYVR (SEQ ID NO: 315)", "setting": "Endoplasmin [410], HSP90B1, drug:DMSO", "result": "−0.70", "unit": "log 2"}, {"measurement": "light to heavy ratio (L/H ratio) of acetylated peptide EK(ac)NLLHVTDTGVGMTR (SEQ ID NO: 314)", "setting": "Endoplasmin[ 142], HSP90B1, drug:DMSO", "result": "−0.84", "unit": "log 2"}, {"measurement": "light to heavy ratio (L/H ratio) of acetylated peptide EVEEDEYK(ac)AFYK (SEQ ID NO: 261)", "setting": "Endoplasmin[ 356], HSP90B1, drug:DMSO", "result": "−0.89", "unit": "log 2"}, {"measurement": "light to heavy ratio (L/H ratio) of acetylated peptide K(ac)EELTLEGIR (SEQ ID NO: 510)", "setting": "Eukaryotic initiation factor 4A-I [238], gene EIF4A1, inhibitor:DMSO", "result": 0.00, "unit": "log 2"}, {"measurement": "light to heavy ratio (L/H ratio) of acetylated peptide SHLAK(ac)EGLYQYK (SEQ ID NO: 533)", "setting": "Eukaryotic translation initiation factor 3 subunit A [68], gene EIF3A, inhibitor:DMSO", "result": 0.00, "unit": "log 2"}, {"measurement": "light to heavy ratio (L/H ratio) of acetylated peptide, log 2 scale", "setting": "FEK(ac)EQQQLNWK (SEQ ID NO: 179), Isoform Long of Integrin beta-7 [763], ITGB7", "result": "−0.47"}, {"measurement": "light to heavy ratio (L/H ratio) of acetylated peptide, log 2 scale", "setting": "FFTVK(ac)LPVALDPGAK (SEQ ID NO: 209), Dolichyl-diphosphooligosaccharide--protein glycosyltransferase subunit 1 precursor [155], RPN1", "result": "−0.39"}, {"measurement": "L/H ratio of acetylated peptide", "setting": "FGIAAK(ac)YQLDPTASISAK (SEQ ID NO: 479), Isoform 2 of Voltage-dependent anion-selective channel protein 2 [224], VDAC2", "result": 0.00, "unit": "log 2"}, {"measurement": "light to heavy ratio (L/H ratio) of acetylated peptide, log 2 scale", "setting": "FLNAENAQK(ac)FK (SEQ ID NO: 200), Ran-specific GTPase-activating protein [150], RANBP1", "result": "−0.68"}, {"measurement": "light to heavy ratio (L/H ratio) of acetylated peptide, log 2 scale", "setting": "FLTK(ac)GDNNAVDDR (SEQ ID NO: 218), Putative signal peptidase complex catalytic subunit SEC11B [101], SEC11B", "result": 0.82}, {"measurement": "light to heavy ratio (L/H ratio) of acetylated peptide, log 2 scale", "setting": "FNQK(ac)GEVYK (SEQ ID NO: 149), Lipoamide acyltransferase component of branched-chain alpha-keto acid dehydrogenase complex mitochondrial [435], DBT", "result": 0.39}, {"measurement": "light to heavy ratio (L/H ratio) of acetylated peptide, log 2 scale", "setting": "FWNK(ac)FLENK (SEQ ID NO: 187), NADH dehydrogenase [ubiquinone] 1 beta subcomplex subunit 6 [49], NDUFB6", "result": 0.54}, {"measurement": "light to heavy ratio (L/H ratio) of acetylated peptide AVDLIQK(ac)HK (SEQ ID NO: 546)", "setting": "Flap endonuclease 1 [252], gene FEN1, inhibitor:DMSO", "result": 0.00, "unit": "log 2"}, {"measurement": "L/H ratio of acetylated peptide TCEESSFCK(ac)R (SEQ ID NO: 36)", "setting": "GANAB [48], log 2 scale, drug vs DMSO", "result": "−0.51"}]}]}
